Assay results taken from PubChem BioAssay AID248 (DTP/NCI, 2004).
Several values for one entry are separate records, joined by “and”; a condition that tells them apart may be missing. Equal values may be shown once. Toxic doses and inconclusive results are not listed.

Tested on: L1210 leukemia ip in BDF1 mice, survival T/C
Experiment: NCI In Vivo Anticancer Drug Screen. Data for tumor model L1210 Leukemia (intraperitoneal) in B6D2F1 (BDF1) mice
Details: endpoint: mean survival time, higher = longer survival
How it was run: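 Survival endpoint. Drug-treated group vs vehicle group, expressed as T divided by C. Tumor passaged by transplantation.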

[1] = dose: 100.0 mg/kg/injection, schedule: Q01DX001 (ip), vehicle: saline
[2] = dose: 200.0 mg/kg/injection, schedule: Q01DX001 (ip), vehicle: saline
[3] = dose: 400.0 mg/kg/injection, schedule: Q01DX001 (ip), vehicle: saline
[4] = dose: 100.0 mg/kg/injection, schedule: Q01DX009 (ip), vehicle: Klucel (hydroxypropylcellulose) (HPC)
[5] = dose: 200.0 mg/kg/injection, schedule: Q01DX009 (ip), vehicle: Klucel (hydroxypropylcellulose) (HPC)
[6] = dose: 400.0 mg/kg/injection, schedule: Q01DX009 (ip), vehicle: Klucel (hydroxypropylcellulose) (HPC)
[7] = dose: 100.0 mg/kg/injection, schedule: Q04DX002 (ip), vehicle: Klucel (hydroxypropylcellulose) (HPC)
[8] = dose: 200.0 mg/kg/injection, schedule: Q04DX002 (ip), vehicle: Klucel (hydroxypropylcellulose) (HPC)
[9] = dose: 400.0 mg/kg/injection, schedule: Q04DX002 (ip), vehicle: Klucel (hydroxypropylcellulose) (HPC)
[10] = dose: 100.0 mg/kg/injection, schedule: Q01DX009 (ip), vehicle: saline

Question: Which T/C (dose: 0.75 mg/kg/injection, schedule: Q01DX Z (ip), vehicle: saline) does the source give for `Nc1nc(F)nc2c1ncn2C1OC(CO)C(O)C1O` (stereo not drawn) here?
Answer: 106 % of control

Question: And the T/C (dose: 1.0 mg/kg/injection, schedule: Q01DX015 (ip), vehicle: saline)?
Answer: 104 % of control

Question: What about the T/C (dose: 1.5 mg/kg/injection, schedule: Q01DX Z (ip), vehicle: saline) of the same molecule?
Answer: 112 % of control

Question: What about the T/C (dose: 1.6 mg/kg/injection, schedule: Q01DX015 (ip), vehicle: saline) of the same molecule?
Answer: 98 % of control

Question: And the T/C (dose: 2.4 mg/kg/injection, schedule: Q01DX015 (ip), vehicle: saline)?
Answer: 96 % of control

Question: What about the T/C (dose: 3.0 mg/kg/injection, schedule: Q01DX Z (ip), vehicle: saline) of the same molecule?
Answer: 104 % of control

Question: And the T/C (dose: 3.6 mg/kg/injection, schedule: Q01DX015 (ip), vehicle: saline)?
Answer: 96 % of control

Question: And the T/C (dose: 5.4 mg/kg/injection, schedule: Q01DX015 (ip), vehicle: saline)?
Answer: 87 % of control

Question: What about the T/C (dose: 6.0 mg/kg/injection, schedule: Q01DX Z (ip), vehicle: saline) of the same molecule?
Answer: 113 % of control

Question: And the T/C (dose: 65.0 mg/kg/injection, schedule: Q03HX024 (ip), vehicle: saline with Tween-80)?
Answer: 205 % of control

Question: What about the T/C (dose: 65.0 mg/kg/injection, schedule: Q06HX012 (ip), vehicle: saline with Tween-80) of the same molecule?
Answer: 160 % of control

Question: And the T/C (dose: 80.0 mg/kg/injection, schedule: Q03HX024 (ip), vehicle: saline with Tween-80)?
Answer: 291 % of control

Question: And the T/C (dose: 80.0 mg/kg/injection, schedule: Q06HX012 (ip), vehicle: saline with Tween-80)?
Answer: 177 % of control

Question: What about the T/C (dose: 90.0 mg/kg/injection, schedule: Q03HX024 (ip), vehicle: saline with Tween-80) of the same molecule?
Answer: 276 % of control

Question: And the T/C [1]?
Answer: 105 % of control

Question: And the T/C (dose: 100.0 mg/kg/injection, schedule: Q03HX024 (ip), vehicle: saline with Tween-80)?
Answer: 301 % of control and 357 % of control (2×)

Question: And the T/C (dose: 100.0 mg/kg/injection, schedule: Q03HX024 (oral), vehicle: saline with Tween-80)?
Answer: 160 % of control

Question: What about the T/C (dose: 110.0 mg/kg/injection, schedule: Q03HX024 (ip), vehicle: saline with Tween-80) of the same molecule?
Answer: 157 % of control

Question: What about the T/C (dose: 125.0 mg/kg/injection, schedule: Q03HX024 (ip), vehicle: saline with Tween-80) of the same molecule?
Answer: 100 % of control

Question: What about the T/C (dose: 125.0 mg/kg/injection, schedule: Q06HX012 (ip), vehicle: saline with Tween-80) of the same molecule?
Answer: 163 % of control

Question: And the T/C (dose: 150.0 mg/kg/injection, schedule: Q03HX024 (ip), vehicle: saline with Tween-80)?
Answer: 83 % of control

Question: What about the T/C (dose: 150.0 mg/kg/injection, schedule: Q03HX024 (oral), vehicle: saline with Tween-80) of the same molecule?
Answer: 166 % of control

Question: And the T/C (dose: 150.0 mg/kg/injection, schedule: Q06HX012 (ip), vehicle: saline with Tween-80)?
Answer: 181 % of control and 326 % of control

Question: And the T/C [2]?
Answer: 107 % of control

Question: And the T/C (dose: 200.0 mg/kg/injection, schedule: Q06HX012 (ip), vehicle: saline with Tween-80)?
Answer: 219 % of control

Question: And the T/C (dose: 250.0 mg/kg/injection, schedule: Q06HX012 (ip), vehicle: saline with Tween-80)?
Answer: 122 % of control

Question: And the T/C (dose: 300.0 mg/kg/injection, schedule: Q01DX009 (ip), vehicle: saline with Tween-80)?
Answer: 86 % of control

Question: What about the T/C (dose: 300.0 mg/kg/injection, schedule: Q12HX006 (ip), vehicle: saline with Tween-80) of the same molecule?
Answer: 204 % of control and 225 % of control

Question: What about the T/C (dose: 350.0 mg/kg/injection, schedule: Q12HX006 (ip), vehicle: saline with Tween-80) of the same molecule?
Answer: 205 % of control

Question: What about the T/C [3] of the same molecule?
Answer: 122 % of control

Question: And the T/C (dose: 400.0 mg/kg/injection, schedule: Q12HX006 (ip), vehicle: saline with Tween-80)?
Answer: 207 % of control and 288 % of control

Question: And the T/C (dose: 450.0 mg/kg/injection, schedule: Q12HX006 (ip), vehicle: saline with Tween-80)?
Answer: 228 % of control

Question: What about the T/C (dose: 600.0 mg/kg/injection, schedule: Q04DX003 (ip), vehicle: saline with Tween-80) of the same molecule?
Answer: 186 % of control

Question: What about the T/C (dose: 750.0 mg/kg/injection, schedule: Q12HX006 (ip), vehicle: saline with Tween-80) of the same molecule?
Answer: 106 % of control

Question: What about the T/C (dose: 800.0 mg/kg/injection, schedule: Q04DX003 (ip), vehicle: saline with Tween-80) of the same molecule?
Answer: 200 % of control

Question: What about the T/C (dose: 1000.0 mg/kg/injection, schedule: Q04DX003 (ip), vehicle: saline with Tween-80) of the same molecule?
Answer: 205 % of control

Question: How did the T/C [4] turn out when `Cc1cccc(C)c1NC(=S)N(CCC#N)C(C)C` was run?
Answer: 103 % of control

Question: And the T/C [5]?
Answer: 106 % of control

Question: What about the T/C [6] of the same molecule?
Answer: 96 % of control

Question: Which T/C [7] does the source give for `Cc1ccc([N+](=O)[O-])cc1NC(=O)N(CC(O)c1ccccc1)C1CCCCC1` (stereo not drawn) here?
Answer: 90 % of control

Question: What about the T/C [8] of the same molecule?
Answer: 97 % of control

Question: And the T/C [9]?
Answer: 95 % of control

Question: For `COC(=O)N(CCCCN(N=O)C(=O)OC)N=O`, which T/C [7] is on record?
Answer: 101 % of control

Question: And the T/C [8]?
Answer: 108 % of control

Question: Which results are given for `O=C(O)COc1cc(F)c(Cl)cc1Cl`?
Answer: T/C [4]: 100 % of control; T/C [5]: 90 % of control

Question: What does the source list for `C=CCc1ccc(OC(=O)Nc2ccc(S(=O)(=O)N(C)C)cc2)c(OC)c1`?
Answer: T/C [1]: 94 % of control; T/C [2]: 91 % of control; T/C [3]: 91 % of control

Question: With `O=C(COCC(=O)N/N=C/c1cccc([N+](=O)[O-])c1)N/N=C/c1cccc([N+](=O)[O-])c1` as the molecule, how does the T/C [4] read?
Answer: 92 % of control

Question: What about the T/C [5] of the same molecule?
Answer: 95 % of control

Question: What about the T/C [6] of the same molecule?
Answer: 106 % of control

Question: Which T/C (dose: 100.0 mg/kg/injection, schedule: Q01DX009 (ip), vehicle: gum acacia) does the source give for `Cc1cccc(C)c1NC(=O)Nc1cccc2ccccc12` here?
Answer: 93 % of control

Question: What about the T/C (dose: 100.0 mg/kg/injection, schedule: Q04DX003 (ip), vehicle: gum acacia) of the same molecule?
Answer: 98 % of control

Question: And the T/C (dose: 200.0 mg/kg/injection, schedule: Q04DX003 (ip), vehicle: gum acacia)?
Answer: 95 % of control

Question: And the T/C (dose: 400.0 mg/kg/injection, schedule: Q01DX009 (ip), vehicle: gum acacia)?
Answer: 94 % of control

Question: What about the T/C (dose: 400.0 mg/kg/injection, schedule: Q04DX003 (ip), vehicle: gum acacia) of the same molecule?
Answer: 91 % of control

Question: For `COC1C=CC2OC(c3ccccc3)OCC2O1` (stereo not drawn), which T/C (dose: 100.0 mg/kg/injection, schedule: Q01DX001 (ip), vehicle: other) is on record?
Answer: 101 % of control

Question: And the T/C (dose: 200.0 mg/kg/injection, schedule: Q01DX001 (ip), vehicle: other)?
Answer: 101 % of control

Question: And the T/C (dose: 400.0 mg/kg/injection, schedule: Q01DX001 (ip), vehicle: other)?
Answer: 109 % of control

Question: Which T/C (dose: 100.0 mg/kg/injection, schedule: Q04DX003 (sc), vehicle: steriod suspending solution) does the source give for `COc1cccc2c1CCC1C2CCC2(O)CC(=O)CCC12C` (stereo not drawn) here?
Answer: 115 % of control

Question: And the T/C (dose: 200.0 mg/kg/injection, schedule: Q04DX003 (sc), vehicle: steriod suspending solution)?
Answer: 113 % of control

Question: And the T/C (dose: 400.0 mg/kg/injection, schedule: Q04DX003 (sc), vehicle: steriod suspending solution)?
Answer: 113 % of control

Question: `O=[N+]([O-])c1cccc(OCCOc2cccc([N+](=O)[O-])c2)c1` was tested. Which T/C [1] did it give?
Answer: 97 % of control

Question: What about the T/C [2] of the same molecule?
Answer: 96 % of control

Question: And the T/C [3]?
Answer: 103 % of control

Question: What does the source list for `O=[N+]([O-])C(c1ccccc1)C(C/C(=N/O)c1ccccc1)c1ccccc1` (stereo not drawn)?
Answer: T/C [7]: 100 % of control; T/C [8]: 92 % of control; T/C [9]: 96 % of control

Question: What does the source list for `O=S(=O)(O)c1ccccc1/C=N\N=C\c1ccccc1S(=O)(=O)O`?
Answer: T/C [10]: 107 % of control; T/C (dose: 100.0 mg/kg/injection, schedule: Q04DX003 (ip), vehicle: saline): 107 % of control; T/C (dose: 200.0 mg/kg/injection, schedule: Q01DX009 (ip), vehicle: saline): 112 % of control; T/C (dose: 200.0 mg/kg/injection, schedule: Q04DX003 (ip), vehicle: saline): 107 % of control; T/C (dose: 265.0 mg/kg/injection, schedule: Q04DX003 (ip), vehicle: saline): 107 % of control; T/C (dose: 400.0 mg/kg/injection, schedule: Q01DX009 (ip), vehicle: saline): 105 % of control; T/C (dose: 400.0 mg/kg/injection, schedule: Q04DX003 (ip), vehicle: saline): 104 % of control; T/C (dose: 600.0 mg/kg/injection, schedule: Q04DX003 (ip), vehicle: saline): 93 % of control

Question: What does the source list for `CCOC(=O)C(C(=O)OCC)C1c2ccccc2C(=O)N(CCN(C)C)c2ccccc21` (stereo not drawn)?
Answer: T/C (dose: 25.0 mg/kg/injection, schedule: Q01DX009 (ip), vehicle: saline): 96 % of control; T/C (dose: 50.0 mg/kg/injection, schedule: Q01DX009 (ip), vehicle: saline): 99 % of control; T/C [10]: 98 % of control

Question: How did the T/C [7] turn out when `[N-]=[N+]=NC(c1ccccc1)S(=O)c1ccccc1` (stereo not drawn) was run?
Answer: 90 % of control

Question: And the T/C [8]?
Answer: 108 % of control

Question: `c1cc(B2OCCNCCO2)ccc1B1OCCNCCO1` was tested. Which T/C (dose: 100.0 mg/kg/injection, schedule: Q04DX003 (ip), vehicle: Klucel (hydroxypropylcellulose) (HPC)) did it give?
Answer: 103 % of control

Question: What about the T/C (dose: 200.0 mg/kg/injection, schedule: Q04DX003 (ip), vehicle: Klucel (hydroxypropylcellulose) (HPC)) of the same molecule?
Answer: 98 % of control

Question: What about the T/C (dose: 400.0 mg/kg/injection, schedule: Q04DX003 (ip), vehicle: Klucel (hydroxypropylcellulose) (HPC)) of the same molecule?
Answer: 104 % of control

Question: For `CCN(CC)CCN1C(=O)c2ccccc2S1(=O)=O`, which T/C (dose: 44.0 mg/kg/injection, schedule: Q01DX Z (ip), vehicle: saline) is on record?
Answer: 100 % of control

Question: What about the T/C (dose: 66.0 mg/kg/injection, schedule: Q01DX Z (ip), vehicle: saline) of the same molecule?
Answer: 98 % of control

Question: What about the T/C (dose: 100.0 mg/kg/injection, schedule: Q01DX Z (ip), vehicle: saline) of the same molecule?
Answer: 98 % of control
